In paper PMC6445242, “Novel tetrazole and cyanamide derivatives as inhibitors of cyclooxygenase-2 enzyme: design, synthesis, anti-inflammatory evaluation, ulcerogenic liability and docking study” (Journal of Enzyme Inhibition and Medicinal Chemistry, 2017):
Marks after values point to notes of the source that are not given here.

Tests used:
ovine COX-1 = molecular target: T1, ovine COX-1 (Ovis aries, UniProt P05979); test: In vitro COX-1 inhibition assay (EIA kit, Cayman)
T1 sequence (P05979 25-600): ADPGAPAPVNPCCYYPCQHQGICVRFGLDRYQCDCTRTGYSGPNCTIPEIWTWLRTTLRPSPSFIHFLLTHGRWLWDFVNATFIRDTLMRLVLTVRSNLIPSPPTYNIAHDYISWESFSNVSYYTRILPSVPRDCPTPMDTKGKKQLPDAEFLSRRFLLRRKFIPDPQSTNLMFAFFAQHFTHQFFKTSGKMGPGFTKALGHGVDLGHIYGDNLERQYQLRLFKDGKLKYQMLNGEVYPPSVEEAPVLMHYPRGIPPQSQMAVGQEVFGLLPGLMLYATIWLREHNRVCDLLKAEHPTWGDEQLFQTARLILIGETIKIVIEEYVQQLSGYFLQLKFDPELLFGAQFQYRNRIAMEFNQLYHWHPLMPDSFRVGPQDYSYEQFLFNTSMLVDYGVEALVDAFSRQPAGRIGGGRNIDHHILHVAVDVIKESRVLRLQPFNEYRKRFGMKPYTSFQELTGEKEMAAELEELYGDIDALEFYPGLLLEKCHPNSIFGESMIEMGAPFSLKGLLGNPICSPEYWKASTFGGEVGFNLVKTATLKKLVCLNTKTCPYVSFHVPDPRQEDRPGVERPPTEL
Protocol: (§1) The peroxidase activity of cyclooxygenase enzyme isoforms was measured using the COX activity assay kit. The ability of the test compounds to inhibit both ovine COX-1 and COX-2 enzymes was explored in vitro using a colorimetric enzyme immunoassay (EIA) kit. The appearance of oxidised N,N,N′,N′-tetramethyl-p-phenylenediamine (TMPD) was monitored at 590 nm. The kit includes isozyme-specific inhibitors for distinguishing COX-2 activity from that of COX-1.

ovine COX-2 = molecular target: T2, ovine COX-2 (Ovis aries, UniProt P79208); test: In vitro COX-2 inhibition assay (EIA kit, Cayman); details: for IC50: IC50 COX-2, ovine COX-2, mean of two determinations; for SI, COX-2 selectivity index (COX-1 IC50/COX-2 IC50): ovine enzymes
T2 sequence (P79208 17-603): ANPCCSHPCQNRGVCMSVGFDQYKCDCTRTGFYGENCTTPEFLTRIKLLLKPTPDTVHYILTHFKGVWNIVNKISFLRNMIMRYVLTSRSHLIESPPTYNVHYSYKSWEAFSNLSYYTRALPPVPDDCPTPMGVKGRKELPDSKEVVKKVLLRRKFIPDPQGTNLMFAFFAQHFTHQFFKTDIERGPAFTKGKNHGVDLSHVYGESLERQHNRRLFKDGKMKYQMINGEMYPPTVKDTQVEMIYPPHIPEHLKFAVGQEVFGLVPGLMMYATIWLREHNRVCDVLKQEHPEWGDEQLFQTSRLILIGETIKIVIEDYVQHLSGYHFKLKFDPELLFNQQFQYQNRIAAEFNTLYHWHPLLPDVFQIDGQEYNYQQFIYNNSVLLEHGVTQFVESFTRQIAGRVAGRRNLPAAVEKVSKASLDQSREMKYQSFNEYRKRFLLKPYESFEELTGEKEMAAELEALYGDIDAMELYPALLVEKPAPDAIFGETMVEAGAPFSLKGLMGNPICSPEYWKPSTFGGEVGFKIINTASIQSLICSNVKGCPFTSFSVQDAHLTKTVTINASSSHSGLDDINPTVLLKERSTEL
Protocol: as §1

[1] = tested on: carrageenan-induced paw oedema; test: Carrageenan-induced rat paw oedema; format: in vivo; details: 50 mg/kg oral; for %Inhibition of paw oedema, 1h / Paw thickness change mean ± SEM, 1h: 1 h after carrageenan; for %Inhibition of paw oedema, 3h / Paw thickness change mean ± SEM, 3h: 3 h after carrageenan; for Paw thickness change mean ± SEM, 3h / Paw thickness change mean ± SEM, 1h / Paw thickness change mean ± SEM, 5h: n = 4; for %Inhibition of paw oedema, 5h / Paw thickness change mean ± SEM, 5h: 5 h after carrageenan
Protocol: Female wister rats (150-200 g) were used in this study. The animals were kept at controlled conditions (temperature 23 ± 2 °C, humidity 60 ± 10%) and a 12/12-h light/dark cycle with access to food and water. All procedures relating to animal care and treatments were performed according to protocols approved by the Research Ethical Committee of Faculty of Pharmacy Beni-Suef University (2014-Beni-Suef, Egypt). The anti-inflammatory activity of the synthesised compounds was determined in vivo by […]-induced paw oedema method in rats[49]. Rats were divided into 21 groups of four animals each, and then, they were fasted overnight with free access to water before the experiment. Before any drug administration, thickness of the left hind paw of each rat was measured in millimetres. Group 1 served as a control and administered the vehicle (2.5% Tween 80).

rat's gastric tissue = test: Histopathological investigation of stomach; format: in vivo; details: haematoxylin and eosin, after ulcerogenic liability dosing
Protocol: Whole rats stomach were collected, selected stomach samples from each rat were fixed in 10% neutral buffered formalin for 48 h and routinely processed for paraffin embedding. 5 μm Thickness sections were obtained then stained with haematoxylin and eosin for histopathological evaluation.

[2] = tested on: gastric mucosa (ulcer number, ulcer index); test: Ulcerogenic liability; format: in vivo, rat; details: 50 mg/kg oral, three successive days, rats; for Ulcer index: sum of % incidence, average severity and average number of ulcers
Protocol: Female wister rats (150–200 g) were used in this study. The animals were kept at controlled conditions (temperature 23 ± 2 °C, humidity 60 ± 10%) and a 12/12-h light/dark cycle with access to food and water. All procedures relating to animal care and treatments were performed according to protocols approved by the Research Ethical Committee of Faculty of Pharmacy Beni-Suef University (2014-Beni-Suef, Egypt).
[…]. Forty-eight rats were used in this study, divided into 12 groups and fasted for 18 h before drug administration. The control group received the vehicle (2.5% Tween 80). Other groups received test compounds, celecoxib or indomethacin at a dose of 50 mg/kg, then animals were fed after 2 h. Rats were given the specified dose orally for three successive days. Rats were sacrificed after 2 h of the last dose, then the stomach of each rat was removed and opened along the greater curvature for determination of the ulcer number and ulcer index according to the reported method.

Row | SMILES | IC50 (ovine COX-1) | melting point | IC50 (ovine COX-2) | SI, COX-2 selectivity index (COX-1 IC50/COX-2 IC50) (ovine COX-2) | %Inhibition of paw oedema, 1h [1] | %Inhibition of paw oedema, 3h [1] | Paw thickness change mean ± SEM, 3h [1] | Paw thickness change mean ± SEM, 1h [1] | %Inhibition of paw oedema, 5h [1] | Paw thickness change mean ± SEM, 5h [1] | Histopathological findings in stomach (rat's gastric tissue) | Average number of ulcers [2] | Ulcer index [2] | Ulcer index ([2]; listed as indomethacin)
1 | N#Cc1c(-c2ccccc2)cc(-c2ccc(-n3cnnn3)cc2)nc1N [Compound 4a, 6-[4-(1H-Tetrazol-1-yl)phenyl]-2-amino-4-phenylnicotinonitrile] | 6.23 µM | 238 to 240 °C | 0.43 µM | 14.48 | 51% | 10% | 1.50 ± 0.19 mm | 0.78 ± 0.08 mm | 0% | 1.33 ± 0.05 mm | – | – | – | –
2 | N#Cc1c(-c2cccnc2)cc(-c2ccc(-n3cnnn3)cc2)nc1N [Compound 4b, 6′-[4-(1H-Tetrazol-1-yl)phenyl]-2′-amino-[3,4′-bipyridine]-3′-carbonitrile] | 6.11 µM | 238 to 240 °C | 0.27 µM | 22.62 | 19% | 9% | 1.53 ± 0.08 mm | 1.28 ± 0.10 mm | 4% | 1.28 ± 0.14 mm | – | – | – | –
3 | N#Cc1c(-c2cccnc2)cc(-c2ccc(-n3cnnn3)cc2)nc1O [Compound 5b, 6′-[4-(1H-Tetrazol-1-yl)phenyl]-2′-hydroxy-[3,4′-bipyridine]-3′-carbonitrile] | 12.4 µM | 287 to 289 °C | 1.14 µM | 10.88 | 38% | 33% | 1.13 ± 0.15 mm | 0.98 ± 0.18 mm | 17% | 1.10 ± 0.15 mm | – | – | – | –
4 | COc1ccc(-c2cc(-c3ccc(-n4cnnn4)cc3)[nH]c(=O)c2C#N)cc1 [Compound 5c, 6-[4-(1H-Tetrazol-1-yl)phenyl]-4-(4-methoxyphenyl)-2-oxo-1,2-dihydropyridine-3-carbonitrile] | 11.2 µM | > 300 °C | 0.71 µM | 15.81 | 57% | 30% | 1.18 ± 0.11 mm | 0.68 ± 0.09 mm | 14% | 1.15 ± 0.05 mm | – | – | – | –
5 | C/C(=N\Nc1ccc(S(C)(=O)=O)cc1)c1ccc(-n2cnnn2)cc1 [Compound 6a, (ZE)-1-{4-[1-(2-(4-Methanesulphonylphenyl)hydrazono)ethyl]phe-nyl}-1H-tetrazole] | 9.21 µM | 258 to 260 °C | 0.38 µM | 24.23 | 30% | 42% | 0.98 ± 0.23 mm | 1.10 ± 0.23 mm | 4% | 1.28 ± 0.08 mm | – | – | – | –
6 | C/C(=N\Nc1ccc(S(N)(=O)=O)cc1)c1ccc(-n2cnnn2)cc1 [Compound 6b] | 12.9 µM | 255 to 257 °C | 0.51 µM | 25.27 | – | 37% | 1.05 ± 0.09 mm | 0.80 ± 0.26 mm | 12% | 1.18 ± 0.13 mm | – | – | – | –
7 | COc1ccc2c(c1)c(CC(=O)O)c(C)n2C(=O)c1ccc(Cl)cc1 [Indomethacin, reference compound] | – | – | – | – | – | – | – | – | – | – | Complete disruption of protective mucosal layer | 14.25*** | 22.50*** | 22.5

Further lines, with some results ahead:

Row | IC50 (ovine COX-1) | melting point | IC50 (ovine COX-2) | SI, COX-2 selectivity index (COX-1 IC50/COX-2 IC50) (ovine COX-2) | SMILES | %Inhibition of paw oedema, 1h [1] | %Inhibition of paw oedema, 3h [1] | Paw thickness change mean ± SEM, 3h [1] | Paw thickness change mean ± SEM, 1h [1] | %Inhibition of paw oedema, 5h [1] | Paw thickness change mean ± SEM, 5h [1] | Histopathological findings in stomach (rat's gastric tissue) | Average number of ulcers [2] | Ulcer index [2] | Ulcer index ([2]; listed as indomethacin)
8 | 12.5 µM | 214 to 216 °C | 0.57 µM | 22 | COc1ccc(/C=C/C(=O)c2ccc(-n3cnnn3)cc2)cc1OC [Compound 3a, (ZE)-1-[4-(1H-Tetrazol-1-yl)phenyl]-3-(3,4-dimethoxyphenyl)prop-2-en-1-one] | 25% | 9% | 1.53 ± 0.09 mm | – | – | – | – | – | – | –
9 | 6.74 µM | 215 to 217 °C | 0.24 µM | 28.08 | COc1cc(/C=C/C(=O)c2ccc(-n3cnnn3)cc2)cc(OC)c1OC [Compound 3b, (ZE)-1-[4-(1H-Tetrazol-1-yl)phenyl]-3-(3,4,5-trimethoxyphenyl)prop-2-en-1-one] | 54% | 13% | 1.45 ± 0.18 mm | 0.73 ± 0.08 mm | 0% | 1.33 ± 0.08 mm | – | – | – | –
10 | 3.45 µM | 112 to 114 °C | 0.26 µM | 13.26 | COc1ccc(/C=C/C(=O)c2ccc(NC#N)cc2)cc1OC [Compound 7a, (ZE)-N-{4-[3–(3,4-Dimethoxyphenyl)acryloyl]phenyl}cyanamide] | 24% | 22% | 1.30 ± 0.15 mm | 1.20 ± 0.11 mm | 0% | 1.33 ± 0.08 mm | – | – | – | –
11 | 3.52 µM | 109 to 111 °C | 0.24 µM | 14.66 | COc1cc(/C=C/C(=O)c2ccc(NC#N)cc2)cc(OC)c1OC [Compound 7b, (ZE)-N-{4-[3–(3,4,5-Trimethoxyphenyl)acryloyl]phenyl}cyanamide] | 32% | 43% | 0.95 ± 0.17 mm | 1.08 ± 0.11 mm | 0% | 1.33 ± 0.08 mm | – | – | – | –
